Laboratory results published in patent US20230062278A1, “COMPOUNDS FOR THE TREATMENT OF MYELOFIBROSIS” (ACTUATE THERAPEUTICS, INC., priority 2019, published 2023).

How the values were obtained:
[1] = tested on: renal cell carcinoma cell lines; conditions: renal cell carcinoma cell lines (Pal 2014); cited from earlier work
[2] = tested on: peripheral blood mononuclear cells from MF patients; experiment: ex vivo colony assay in methylcellulose, primary cells from MF patients; format: cell-based, human
Description: (§1) In order to study the effects of 9-ING-41 (alone and in combination with Ruxolitinib) on growth and proliferation in MF, ex vivo colony assays were conducted using primary cells from patients with previously untreated MF and normal bone marrow. The experiments were designed to assess the number, size, and morphology of stem/progenitor cells present in blood both with and without treatment.
(§2) Peripheral blood mononuclear cells from MF patients and bone marrow from healthy patients (control) were plated in methylcellulose in duplicate, containing cytokines, in the presence of either DMSO only, 9-ING-41 only, or a combination of 9-ING-41 and Ruxolitinib (0.05uM). Colonies were counted ten days later, and colony growth frequency, distribution, and morphology were calculated.

[3] = tested on: bone marrow from healthy patients; experiment: ex vivo colony assay in methylcellulose, normal bone marrow (control); format: cell-based, human; conditions: 9-ING-41 alone
Description: as §1, §2

## Cn1cc(C2=C(c3coc4ccc(F)cc34)C(=O)NC2=O)c2cc3c(cc21)OCO3 [9-ING-41, 3-(5-fluorobenzofuran-3-yl)-4-(5-methyl-5H-[1,3]dioxolo[4,5-f]indol-7-yl)pyrrole-2,5-dione]
[1]
  antiproliferative activity: cell-cycle effect: G0-G1 and G2-M phase arrest
[2]; 9-ING-41 only, MF cases as compared to normal, counted after ten days, FIGS. 1A, 1D, 2A, 2C
  primitive granulocytic/erythroid/macrophage/monocyte (GEMM) colony growth: increased relative to 9-ING-41 concentration
[2]; MF cases 1 and 2, Ruxolitinib 0.05 µM where combined
  size and presence of primitive colonies: increase in very large, fully differentiated primitive colonies
[2]; after addition of 9-ING-41, colonies counted ten days after plating, vs DMSO
  presence of erythroid (BFU-E), granulocytic (CFU-G) and granulocytic/monocytic (CFU-GM) colonies: remained proportionally the same
[3]
  colony size: modest increase in colony size
